19 compounds from patent US9232799B2, “N-[(het)arylethyl)] pyrazole(thio)carboxamides and their heterosubstituted analogues” (BAYER INTELLECTUAL PROPERTY GMBH, priority 2010, dated 2016) can be followed below.

Usually logP stands for a log measure of how a compound divides between an organic and an aqueous phase. High values mean a more lipophilic compound, low ones a more hydrophilic compound. As a reminder, the inhibition is the drop in the measured response relative to a control, in per cent. The chromatographic logP is a lipophilicity value derived from retention on a column. Lower therefore signals lower lipophilicity.

Several values for one entry are separate records, joined by “and”; a condition that tells them apart may be missing. Equal entries are not always repeated.

One data set has as its system Puccinia triticina. Nature of the data set: In vivo preventive test on Puccinia triticina (wheat). To be noted: dose 500 ppm of active ingredient, evaluated 8 days after inoculation.
In a further data set the test system is Alternaria solani. In words: In vivo preventive test on Alternaria solani (tomato). To be noted: 500 ppm of active ingredient, evaluated 7 days after inoculation. The text has this: One day after this treatment, the plants are inoculated with an aqueous spore suspension of Alternaria solani.
The nature of data set [1]: logP by HPLC on reversed-phase column (C 18), EEC Directive 79/831 Annex V.A8. It is filed as physicochemical. Here is the method:
In table 1, the logP values were determined in accordance with EEC Directive 79/831 Annex V.A8 by HPLC (High Performance Liquid Chromatography) on a reversed-phase column (C 18), using the method described below: Temperature: 40° C.; […]

The next data set deals with Pyrenophora teres. In words: In vivo preventive test on Pyrenophora teres (barley). To be noted: 500 ppm of active ingredient, evaluated 7-9 days after inoculation. The text has this:
One day after this treatment, the plants are inoculated with an aqueous spore suspension of Pyrenophora teres.

The next data set deals with Botrytis cinerea. In words: In vivo preventive test on Botrytis cinerea (beans). To be noted: preventive, beans, lesion size 2 days after inoculation; for pest or weed control at 500 ppm: Botrytis cinerea, 48 h, 500 ppm of active ingredient, read-out: Efficacy. The text has this: To test for preventive activity, young plants are sprayed with the preparation of active compound. After the spray coating has dried on, 2 small pieces of agar covered with growth of Botrytis cinerea are placed on each leaf.

A further data set relates to Sphaerotheca fuliginea. In words: In vivo preventive test on Sphaerotheca fuliginea (cucumber). To be noted: 500 ppm of active ingredient, evaluated 7 days after inoculation. The text has this:
One day after this treatment, the plants are inoculated with an aqueous spore suspension of Sphaerotheca fuliginea.

The subject of a further data set is aflatoxines production. Nature of the data set: microbe, parasite or virus in culture. The format is cell-based, Aspergillus parasiticus.
Another data set has as its system Fusarium graminearum. In words: microbe, parasite or virus in culture. It is filed as cell-based.
The next data set deals with Leptosphaeria nodorum. In words: In vivo preventive test on Leptosphaeria nodorum (wheat). To be noted: 500 ppm of active ingredient, evaluated 7-9 days after inoculation. The text has this:
One day after this treatment, the plants are inoculated with an aqueous spore suspension of Leptosphaeria nodorum.

The subject of another data set is Venturia inaequalis. In words: In vivo preventive test on Venturia inaequalis (apple scab). To be noted: 100 ppm of active ingredient, evaluated 10 days after inoculation.
The test system of data set [2] is Fusarium nivale (var. majus). Nature of the data set: In vivo preventive test on Fusarium nivale (wheat). To be noted: 500 ppm of active ingredient, evaluated 5 days after inoculation. The text has this: (§1) To test for preventive activity, young plants are sprayed with the preparation of active compound or active compound combination at the stated rate of application.

The next data set has as its system Septoria tritici. In words: In vivo preventive test on Septoria tritici (wheat). The settings on record: 500 ppm of active ingredient, evaluated 21 days after inoculation.
Text: as §1

Data set [3] deals with Blumeria graminis f.sp. hordei. Nature of the data set: In vivo preventive test on Blumeria graminis (barley). To be noted: 500 ppm of active ingredient, evaluated 7 days after inoculation.
Text: as §1

As to `Cn1nc(C(F)F)c(C(=O)N(C[Si](C)(C)c2ccccc2)C2CCCCC2)c1F` [Example 229], the Efficacy stood at 80% in the data set with Puccinia triticina, 90% in the data set on Alternaria solani and 70% with Pyrenophora teres. In data set [1], the logP is listed as 4.86.
For the compound `CC(Cc1ncc(C(F)(F)F)cc1Cl)N(C(=O)c1cn(C)nc1C(F)F)C1CC1` (stereo not drawn) [compound CMP4, N-{1-[3-chloro-5-(trifluoromethyl)pyridin-2-yl]propan-2-yl}-N-cyclopropyl-3-(difluoromethyl)-1-methyl-1H-pyrazole-4-carboxamide, reference compound], the pest or weed control at 500 ppm in the data set with Botrytis cinerea turned out to be 0%. This compound displayed an Efficacy in the data set with Puccinia triticina of 11%.
Turning to `CC(Cc1ccccc1Cl)NC(=O)c1c(C(F)F)nn(C)c1Cl` (stereo not drawn) [Example 33], the Efficacy stood at 93% in the data set with Sphaerotheca fuliginea, 80% in the data set on Puccinia triticina, 100% with Alternaria solani and 100% with Pyrenophora teres. Also, the “% Inhibition of Aflatoxin at 50 μM” value in the data set with aflatoxines production is given as 100%. In the data set on Fusarium graminearum, the “% Inhibition of fungal growth at 50 μM” value was 100%. In data set [1], this compound showed a logP of 3.15.
As for `CN(CCc1ccc(F)cc1)C(=O)c1c(C(F)F)nn(C)c1Cl` [Example 24], the Efficacy worked out at 80% in the data set with Puccinia triticina, 100% in the data set on Alternaria solani and 95% in the data set with Pyrenophora teres. The “% Inhibition of Aflatoxin at 50 μM” value in the data set with aflatoxines production is 100%. For the same compound, the “% Inhibition of fungal growth at 50 μM” value in the data set on Fusarium graminearum is 88%. Further, the logP in data set [1] was found to be 2.66.
For the compound `CC(Cc1cc(Cl)cc(Cl)c1)NC(=O)c1c(C(F)F)nn(C)c1F` (stereo not drawn) [Example 102], the results for the Efficacy with Puccinia triticina, in the data set with Alternaria solani and with Pyrenophora teres were 70%, 95% and 100%, respectively. Besides, the “% Inhibition of Aflatoxin at 50 μM” value with aflatoxines production amounted to 100%. In addition, in the data set with Fusarium graminearum, the “% Inhibition of fungal growth at 50 μM” value worked out at 100%. In [1], this compound registered a logP of 3.48.
For `CC(Cc1ccc(Cl)cc1Cl)NC(=O)c1c(C(F)F)nn(C)c1F` (stereo not drawn) [Example 67], the Efficacy in the data set with Sphaerotheca fuliginea was found to be 100%; in the data set on Leptosphaeria nodorum, 90%; in the data set with Botrytis cinerea (100 ppm of active ingredient), 89%; with Alternaria solani it was 100%; with Venturia inaequalis, 100%; in the data set with Pyrenophora teres, 100%. Moreover, the “% Inhibition of Aflatoxin at 50 μM” value in the data set on aflatoxines production amounted to 100%. Moreover, the “% Inhibition of fungal growth at 50 μM” value with Fusarium graminearum was 100%. This compound also showed a logP in [1] of 3.46.
`CN(CCc1cc(Cl)ccc1Cl)C(=O)c1c(C(F)F)nn(C)c1Cl` [Example 95]: the values for the Efficacy in the data set on Puccinia triticina, in the data set with Alternaria solani and in the data set on Pyrenophora teres were 70%, 100% and 100%, respectively. Besides, the “% Inhibition of Aflatoxin at 50 μM” value with aflatoxines production amounted to 100%. Further, the “% Inhibition of fungal growth at 50 μM” value in the data set on Fusarium graminearum turned out to be 100%. The same compound registered a lipophilicity (logP) in [1] of 3.33.
Take `Cn1nc(C(F)F)c(C(=O)N(CC(F)(F)c2cc(Cl)ccc2Cl)C2CC2)c1F` [Example 99]: the Efficacy came to 92% in [2]; 98% in the data set on Sphaerotheca fuliginea; 100% in the data set on Septoria tritici; 95% with Leptosphaeria nodorum; 89% in data set [3]; 95% in the data set on Alternaria solani. The compound also showed an Efficacy with Pyrenophora teres of 100%. In [1], the logP is reported as 3.85.
Turning to `CC(Cc1cc(Cl)cc(Cl)c1)NC(=O)c1c(C(F)F)nn(C)c1Cl` (stereo not drawn) [Example 104], the Efficacy in the data set with Sphaerotheca fuliginea came to 86%; with Puccinia triticina it was 70%; in the data set with Alternaria solani, 95%; in the data set with Pyrenophora teres, 100%. For the same compound, the “% Inhibition of Aflatoxin at 50 μM” value in the data set with aflatoxines production is listed as 100%. Also, in the data set on Fusarium graminearum, the “% Inhibition of fungal growth at 50 μM” value was 98%. Besides, the logP in data set [1] turned out to be 3.67.
As for `CC(Cc1ccc(Oc2ccccc2)cc1)NC(=O)c1c(C(F)F)nn(C)c1F` (stereo not drawn) [Example 151], the Efficacy came to 100% in data set [2]; 93% in the data set on Sphaerotheca fuliginea; 100% in the data set on Septoria tritici; 70% in the data set on Leptosphaeria nodorum; 100% in data set [3]; 95% in the data set with Alternaria solani. The Efficacy in the data set on Pyrenophora teres turned out to be 100%. Further, in the data set on aflatoxines production, the “% Inhibition of Aflatoxin at 50 μM” value worked out at 100%. The “% Inhibition of fungal growth at 50 μM” value with Fusarium graminearum came out at 94%. The same compound returned a logP in data set [1] of 3.63.
As for `CC(Cc1cccc(Oc2ccccc2)c1)NC(=O)c1c(C(F)F)nn(C)c1Cl` (stereo not drawn) [Example 147], the Efficacy is 70% with Puccinia triticina, 100% in the data set with Alternaria solani and 100% in the data set with Pyrenophora teres. For the same compound, in the data set with aflatoxines production, the “% Inhibition of Aflatoxin at 50 μM” value turned out to be 93%. In addition, the “% Inhibition of fungal growth at 50 μM” value with Fusarium graminearum came to 77%. The same compound yielded a logP in [1] of 3.80.
`Cn1nc(C(F)F)c(C(=O)NCC(C)(C)c2ccc(Cl)cc2Cl)c1Cl` [Example 88]: the Efficacy in [2] was found to be 88%; in the data set on Sphaerotheca fuliginea, 94%; in the data set on Septoria tritici it was 90%; with Leptosphaeria nodorum it was 90%; in [3] it was 80%; in the data set on Alternaria solani, 100%. Also, in the data set on Pyrenophora teres, the Efficacy is given as 100%. The “% Inhibition of Aflatoxin at 50 μM” value in the data set on aflatoxines production came to 100%. In addition, the “% Inhibition of fungal growth at 50 μM” value in the data set on Fusarium graminearum was 86%. The logP in [1] was 4.03.
With `Cn1nc(C(F)F)c(C(=O)N(C[Si](C)(C)c2ccc3ccccc3c2)C2CC2)c1F` [Example 245], the Efficacy is reported as 100% in the data set with Sphaerotheca fuliginea; 100% in the data set on Leptosphaeria nodorum; 95% in the data set with Puccinia triticina; 100% in the data set with Alternaria solani; 100% in the data set on Pyrenophora teres. In the data set on aflatoxines production, the “% Inhibition of Aflatoxin at 50 μM” value amounted to 100%. For the same compound, the “% Inhibition of fungal growth at 50 μM” value in the data set with Fusarium graminearum stood at 100%. Further, the logP in data set [1] came to 4.36.
As for `CC(Cc1cc(Cl)ccc1Cl)NC(=O)c1c(C(F)F)nn(C)c1Cl` (stereo not drawn) [Example 93], the Efficacy is 95% in the data set on Sphaerotheca fuliginea, 70% in the data set with Puccinia triticina, 100% with Alternaria solani and 100% in the data set on Pyrenophora teres. Further, the “% Inhibition of Aflatoxin at 50 μM” value with aflatoxines production is on record as 100%. In addition, the “% Inhibition of fungal growth at 50 μM” value in the data set with Fusarium graminearum was 100%. The compound also had a logP in data set [1] of 3.53.
On to `CC(Cc1c(F)cccc1Cl)N(C(=O)c1c(C(F)F)nn(C)c1Cl)C1CC1` (stereo not drawn) [Example 119], for which the figures for the Efficacy in the data set with Puccinia triticina, with Alternaria solani and in the data set on Pyrenophora teres were 80%, 100% and 100%, respectively. In addition, the “% Inhibition of Aflatoxin at 50 μM” value in the data set on aflatoxines production is on record as 95%. In the data set on Fusarium graminearum, the “% Inhibition of fungal growth at 50 μM” value worked out at 79%. Moreover, the logP in data set [1] was 3.94.
On to `Cc1nn(C)c(F)c1C(=O)N(C(C)Cc1ncc(C(F)(F)F)cc1Cl)C1CC1` (stereo not drawn) [compound CMP5, N-{1-[3-chloro-5-(trifluoromethyl)pyridin-2-yl]propan-2-yl}-N-cyclopropyl-5-fluoro-1,3-dimethyl-1H-pyrazole-4-carboxamide, reference compound], for which the pest or weed control at 500 ppm in the data set with Botrytis cinerea worked out at 0%. Also, the Efficacy in the data set on Puccinia triticina was 11%.
On to `Cn1nc(C(F)F)c(C(=O)NC(C)(C)C(=O)c2ncc(C(F)(F)F)cc2Cl)c1F` [Example 194, N-{1-[3-chloro-5-(trifluoromethyl)pyridin-2-yl]-2-methyl-1-oxopropan-2-yl}-3-(difluoromethyl)-5-fluoro-1-methyl-1H-pyrazole-4-carboxamide], for which the Efficacy in data set [2] turned out to be 100%; in the data set with Sphaerotheca fuliginea, 98%; with Septoria tritici, 100%; with Leptosphaeria nodorum, 90%; in data set [3], 100%; in the data set on Alternaria solani it was 100%. In the data set on Pyrenophora teres, the Efficacy is reported as 100%. Also, the inhibition at 50 µM in the data set with aflatoxines production (Aspergillus parasiticus, 168 h, read-out: % Inhibition of Aflatoxin at 50 μM) was 100%; with Fusarium graminearum (Fusarium graminearum, 168 h, read-out: % Inhibition of fungal growth at 50 μM), 100%. Further, the chromatographic logP in data set [1] (logP) amounted to 3.23.
Take `Cn1nc(C(F)F)c(C(=O)NC[Si](C)(C)c2ccccc2Cl)c1F` [Example 233]: the Efficacy in the data set with Septoria tritici turned out to be 90%; with Leptosphaeria nodorum it was 80%; in the data set with Puccinia triticina it was 95%; in the data set on Alternaria solani it was 95%; in the data set on Pyrenophora teres, 100%. For the same compound, the “% Inhibition of Aflatoxin at 50 μM” value in the data set on aflatoxines production turned out to be 88%. In addition, the “% Inhibition of fungal growth at 50 μM” value in the data set on Fusarium graminearum worked out at 76%. Besides, the logP in [1] is on record as 3.48.
As for `Cn1nc(C(F)F)c(C(=O)NC[Si](C)(C)c2ccc(Cl)cc2Cl)c1F` [Example 240], the Efficacy in the data set on Leptosphaeria nodorum is 95%; in the data set with Puccinia triticina it was 100%; in the data set with Alternaria solani, 100%; with Pyrenophora teres, 100% and 95%. Besides, the “% Inhibition of Aflatoxin at 50 μM” value in the data set on aflatoxines production stood at 100%. Also, the “% Inhibition of fungal growth at 50 μM” value in the data set on Fusarium graminearum worked out at 84%. The compound further came in with a logP in [1] of 4.06.
